# Where two headings read alike, the source gives them in different places. Square brackets hold non-standard residues; d marks the D form. Peptide text beside a SMILES is read from it.
# Assays:
# [1] = system: C. glabrata clinical strains; experiment: MIC, clinical yeast strains; format: cell-based, Candida glabrata; set-up: unit: µg/ml
# Summary of the method: (§1)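 MIC = lowest concentration without visual growth after 20–24 h at 37° C. Microbroth dilution, 5.0×10^5 cfu/ml, 0.125–128 μg/ml range; MH broth for bacteria, potato dextrose broth for yeasts.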
# [2] = system: C. parapsilosis clinical strains; experiment: MIC, clinical yeast strains; format: cell-based, Candida parapsilosis; set-up: unit: µg/ml
# Summary of the method: as §1
# [3] = system: C. quillermondiae clinical strains; experiment: MIC, clinical yeast strains; format: cell-based, Candida quillermondiae; set-up: unit: μg/ml; settings: C. quillermondiae clinical yeast strain 1
# Summary of the method: as §1
# [4] = system: Escherichia coli clinical strains; format: cell-based; settings: microdilution, Muller Hinton broth-cation adjusted, 0.02% BSA, 0.2% acetic acid
# Summary of the method: as §1
# [5] = system: Klebsiella pneumoniae clinical strains; format: cell-based; settings: microdilution, Muller Hinton broth-cation adjusted, 0.02% BSA, 0.2% acetic acid
# Summary of the method: as §1
# [6] = system: Pseudomonas aeruginosa clinical strains; format: cell-based; settings: microdilution, Muller Hinton broth-cation adjusted, 0.02% BSA, 0.2% acetic acid
# Summary of the method: as §1
# [7] = system: all the bacteria and yeasts tested; format: cell-based
# Summary of the method: as §1
# [8] = system: Candida albicans clinical strains; experiment: MIC, clinical yeast strains; format: cell-based; set-up: unit: μg/ml
# Summary of the method: as §1
# [9] = system: Staphylococcus aureus clinical strains; format: cell-based; set-up: Minimum inhibitory concentration: unit: μg/ml; settings: microdilution, Muller Hinton broth-cation adjusted, 0.02% BSA, 0.2% acetic acid
# Summary of the method: as §1
# [10] = system: Proteus mirabilis clinical strains; format: cell-based; set-up: Minimum inhibitory concentration: unit: μg/ml; settings: for Minimum inhibitory concentration: microdilution, Muller Hinton broth-cation adjusted, 0.02% BSA, 0.2% acetic acid
# Summary of the method: as §1
# [11] = system: Serratia marcescens clinical strains; format: cell-based; set-up: Minimum inhibitory concentration: unit: μg/ml; settings: for Minimum inhibitory concentration: microdilution, Muller Hinton broth-cation adjusted, 0.02% BSA, 0.2% acetic acid
# Summary of the method: as §1
# [12] = system: Enterobacter cloacae clinical strains; format: cell-based; set-up: Minimum inhibitory concentration: unit: μg/ml; settings: microdilution, Muller Hinton broth-cation adjusted, 0.02% BSA, 0.2% acetic acid
# Summary of the method: as §1
# [13] = system: Streptococcus pneumoniae clinical strains; format: cell-based; set-up: Minimum inhibitory concentration: unit: μg/ml; settings: microdilution, Muller Hinton broth-cation adjusted, 0.02% BSA, 0.2% acetic acid
# Summary of the method: as §1
# [14] = system: Acinetobacter baumannii clinical strains; format: cell-based; set-up: Minimum inhibitory concentration: unit: μg/ml; settings: microdilution, Muller Hinton broth-cation adjusted, 0.02% BSA, 0.2% acetic acid
# Summary of the method: as §1
smiles,measurement,setting,value
CC[C@@H](C)[C@@H](NC(=O)[C@@H](Cc1c[nH]c2ccccc12)NC(=O)[C@H](N)CCCCN)C(=O)N[C@@H](C(=O)N[C@H](Cc1c[nH]c2ccccc12)C(=O)N[C@H](CCCNC(=N)N)C(=O)N[C@H](Cc1c[nH]c2ccccc12)C(=O)N[C@H](CCCNC(=N)N)C(=O)N[C@H](Cc1ccccc1)C(=O)N[C@H](CCCCN)C(=O)N[C@H](CCCNC(=N)N)C(=O)O)C(C)C [Chain201D] (H-[dK][dW][dI][dV][dW][dR][dW][dR][dF][dK][dR]-OH),Minimum inhibitory concentration,[1]; C. glabrata clinical yeast strain 1,8
same,Minimum inhibitory concentration,[1]; C. glabrata clinical yeast strain 2,8
same,Minimum inhibitory concentration,[1]; C. glabrata clinical yeast strain 3,8
same,Minimum inhibitory concentration,[1]; C. glabrata clinical yeast strain 4,64
same,Minimum inhibitory concentration,[2]; C. parapsilosis clinical yeast strain 1,8
same,Minimum inhibitory concentration,[2]; C. parapsilosis clinical yeast strain 2,8
same,Minimum inhibitory concentration,[2]; C. parapsilosis clinical yeast strain 3,8
same,Minimum inhibitory concentration,[2]; C. parapsilosis clinical yeast strain 4,8
same,Minimum inhibitory concentration,[3],8
same,Minimum inhibitory concentration,[4]; Escherichia coli clinical strain 1,16
same,Minimum inhibitory concentration,[4]; Escherichia coli clinical strain 2,1
same,Minimum inhibitory concentration,[4]; Escherichia coli clinical strain 3,1
same,Minimum inhibitory concentration,[4]; Escherichia coli clinical strain 4,1
same,Minimum inhibitory concentration,[4]; Escherichia coli clinical strain 5,1
same,Minimum inhibitory concentration,[5]; Klebsiella pneumoniae clinical strain 1,2
same,Minimum inhibitory concentration,[5]; Klebsiella pneumoniae clinical strain 2,2
same,Minimum inhibitory concentration,[5]; Klebsiella pneumoniae clinical strain 3,4
same,Minimum inhibitory concentration,[5]; Klebsiella pneumoniae clinical strain 4,4
same,Minimum inhibitory concentration,[5]; Klebsiella pneumoniae clinical strain 5,2
same,Minimum inhibitory concentration,[6]; Pseudomonas aeruginosa clinical strain 1,4
same,Minimum inhibitory concentration,[6]; Pseudomonas aeruginosa clinical strain 2,4
same,Minimum inhibitory concentration,[6]; Pseudomonas aeruginosa clinical strain 3,4
same,Minimum inhibitory concentration,[6]; Pseudomonas aeruginosa clinical strain 4,2
same,Minimum inhibitory concentration,[6]; Pseudomonas aeruginosa clinical strain 5,2
same,MICs against all the bacteria and yeasts tested,[7],0.5 to 32 µg/mL
same,Minimum inhibitory concentration,[8]; Candida albicans clinical yeast strain 1,16
same,Minimum inhibitory concentration,[8]; Candida albicans clinical yeast strain 2,8
same,Minimum inhibitory concentration,[8]; Candida albicans clinical yeast strain 3,8
same,Minimum inhibitory concentration,[8]; Candida albicans clinical yeast strain 4,16
same,Minimum inhibitory concentration,[8]; Candida albicans clinical yeast strain 5,8
same,Minimum inhibitory concentration,[9]; Staphylococcus aureus clinical strain 1,1
same,Minimum inhibitory concentration,[9]; Staphylococcus aureus clinical strain 2,1
same,Minimum inhibitory concentration,[9]; Staphylococcus aureus clinical strain 3,1
same,Minimum inhibitory concentration,[9]; Staphylococcus aureus clinical strain 4,1
same,Minimum inhibitory concentration,[9]; Staphylococcus aureus clinical strain 5,1
same,Minimum inhibitory concentration,[10]; Proteus mirabilis clinical strain 1,>128
same,Minimum inhibitory concentration,[10]; Proteus mirabilis clinical strain 2,32
same,Minimum inhibitory concentration,[10]; Proteus mirabilis clinical strain 3,64
same,Minimum inhibitory concentration,[10]; Proteus mirabilis clinical strain 4,>128
same,Minimum inhibitory concentration,[10]; Proteus mirabilis clinical strain 5,>128
same,MICs against Proteus mirabilis,[10]; clinical strains,64 to 128 µg/mL
same,Minimum inhibitory concentration,[11]; Serratia marcescens clinical strain 1,64
same,Minimum inhibitory concentration,[11]; Serratia marcescens clinical strain 2,64
same,Minimum inhibitory concentration,[11]; Serratia marcescens clinical strain 3,64
same,Minimum inhibitory concentration,[11]; Serratia marcescens clinical strain 4,64
same,Minimum inhibitory concentration,[11]; Serratia marcescens clinical strain 5,128
same,MICs against Serratia marcescens,[11]; clinical strains,64 to 128 µg/mL
same,Minimum inhibitory concentration,[12]; Enterobacter cloacae clinical strain 1,1
same,Minimum inhibitory concentration,[12]; Enterobacter cloacae clinical strain 2,2
same,Minimum inhibitory concentration,[12]; Enterobacter cloacae clinical strain 3,2
same,Minimum inhibitory concentration,[12]; Enterobacter cloacae clinical strain 4,2
same,Minimum inhibitory concentration,[12]; Enterobacter cloacae clinical strain 5,1
same,Minimum inhibitory concentration,[13]; Streptococcus pneumoniae clinical strain 1,8
same,Minimum inhibitory concentration,[13]; Streptococcus pneumoniae clinical strain 2,4
same,Minimum inhibitory concentration,[13]; Streptococcus pneumoniae clinical strain 3,2
same,Minimum inhibitory concentration,[13]; Streptococcus pneumoniae clinical strain 4,4
same,Minimum inhibitory concentration,[13]; Streptococcus pneumoniae clinical strain 5,4
same,Minimum inhibitory concentration,[14]; Acinetobacter baumannii clinical strain 1,4
same,Minimum inhibitory concentration,[14]; Acinetobacter baumannii clinical strain 2,4
same,Minimum inhibitory concentration,[14]; Acinetobacter baumannii clinical strain 3,4
same,Minimum inhibitory concentration,[14]; Acinetobacter baumannii clinical strain 4,4
same,Minimum inhibitory concentration,[14]; Acinetobacter baumannii clinical strain 5,4

# From patent US10457709B2, “Antimicrobial peptides, their variants and uses” (priority 2015, dated 2019)
